Values joined by “and” are separate entries in the source; they are usually repeats but may differ in a detail not shown here. Equal values may be shown once. Read-outs that look alike come from different tables or passages of the source.
What was measured:
Test in all cases: biochemical
Assay type in all cases: binding
[1] = target: AlinCSP2 (Adelphocoris lineolatus, UniProt E7BLG5)
Method: (§1) Fluorescence binding assays were performed on an F-380 fluorescence spectrophotometer (Tianjin, China) in a 1 cm light path quartz cuvette. The slit width used for excitation and emission was both 10 nm. The fluorescent probe N-phenyl-1-naphthylamine (1-NPN) was dissolved in methanol with a 1 mM stock solution. 1-NPN was excited at 337 nm and emission spectra were recorded between 390 nm and 530 nm.
(§2) All values reported were obtained from three independent measurements.
(§3) For determining binding constants, the intensity values corresponding to the maximum fluorescence emission were plotted against free ligand concentration. Bound ligand was evaluated from the values of fluorescence intensity assuming the protein was 100% active, with a stoichiometry of 1∶1 protein:ligand at saturation. The curves were linearized using Scatchard Plot.

[2] = target: AlinCSP1 (Adelphocoris lineolatus, UniProt J7EJ71)
Sequence of AlinCSP1 (J7EJ71 entry or part of it): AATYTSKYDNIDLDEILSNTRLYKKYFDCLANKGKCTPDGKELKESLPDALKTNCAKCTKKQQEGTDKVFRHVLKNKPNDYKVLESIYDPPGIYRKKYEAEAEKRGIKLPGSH
Method: as §1, §2, §3

[3] = target: AlinCSP3 (Adelphocoris lineolatus, UniProt E7BLG4)
Sequence of AlinCSP3 (E7BLG4 entry or part of it): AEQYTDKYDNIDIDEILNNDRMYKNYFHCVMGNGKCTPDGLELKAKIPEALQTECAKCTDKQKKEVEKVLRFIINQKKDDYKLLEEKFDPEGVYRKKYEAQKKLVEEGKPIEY
Method: as §1, §2, §3

[4] = 1-NPN and protein at 2 µM, 50 mM Tris-HCl pH 7.4, KD calculated from IC50, mean of three measurements, read-out: KD (µM) AlinCSP2
[5] = 1-NPN and protein at 2 µM, 50 mM Tris-HCl pH 7.4, KD calculated from IC50, mean of three measurements, read-out: KD (µM) AlinCSP1
[6] = 1-NPN and protein at 2 µM, 50 mM Tris-HCl pH 7.4, KD calculated from IC50, mean of three measurements, read-out: KD (µM) AlinCSP3
[7] = KD (µM) AlinCSP2, 1-NPN and protein at 2 µM, 50 mM Tris-HCl pH 7.4, KD calculated from IC50, mean of three measurements
[8] = KD (µM) AlinCSP1, 1-NPN and protein at 2 µM, 50 mM Tris-HCl pH 7.4, KD calculated from IC50, mean of three measurements
[9] = KD (µM) AlinCSP3, 1-NPN and protein at 2 µM, 50 mM Tris-HCl pH 7.4, KD calculated from IC50, mean of three measurements
[10] = u.d. = KD not calculated because IC50>50 µM, read-out: KD (µM) AlinCSP2, given as u.d.
[11] = u.d. = KD not calculated because IC50>50 µM, read-out: KD (µM) AlinCSP1, given as u.d.
[12] = u.d. = KD not calculated because IC50>50 µM, read-out: KD (µM) AlinCSP3, given as u.d.
[13] = KD (µM) AlinCSP2, given as u.d., u.d. = KD not calculated because IC50>50 µM
[14] = KD (µM) AlinCSP1, given as u.d., u.d. = KD not calculated because IC50>50 µM
[15] = KD (µM) AlinCSP3, given as u.d., u.d. = KD not calculated because IC50>50 µM

Sequence of AlinCSP2 (E7BLG5 entry or part of it): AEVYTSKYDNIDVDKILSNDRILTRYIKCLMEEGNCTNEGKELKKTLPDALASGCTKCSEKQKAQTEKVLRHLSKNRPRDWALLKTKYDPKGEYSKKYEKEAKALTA

Row | Molecule | Kd [1, 4] | Kd [3, 6] | Kd [1, 10] | Kd [2, 11] | Kd [3, 12] | further results
1 | C=CC(C)(O)CCC=C(C)CCC=C(C)C (mixture of isomers) [Nerolidol] | 24.4 ± 1.36 µM | 22.4 ± 1.33 µM | – | – | – | Kd [2, 5]: 28.1 ± 1.26 µM
2 | CC1(C)[C@@H]2CC[C@@]1(C)[C@H](O)C2 (racemic) [Isoborneol] | – | – | – | – | – | Kd [1, 7]: 21.1 ± 2.04 µM; Kd [2, 8]: 24.2 ± 1.42 µM; Kd [3, 9]: 28.6 ± 1.68 µM
3 | Cc1cccc(C(=O)O)c1C [2,3-Dimethylbenzoic acid] | – | – | > 50 µM | > 50 µM | > 50 µM | –
4 | CCCCC(CC)CO (stereo not drawn) [2-Ethyl-1-hexanol] | – | – | > 50 µM | > 50 µM | > 50 µM | –
5 | CCCCCCCC(C)=O [2-Nonanone] | 42.4 ± 2.21 µM | – | – | > 50 µM | > 50 µM | –
6 | CCCCCCC(C)O (stereo not drawn) [2-Octanol] | 39.5 ± 2.11 µM | – | – | > 50 µM | > 50 µM | –
7 | CCCCCCC(C)=O [2-Octanone] | – | 39.5 ± 1.91 µM | > 50 µM | > 50 µM | – | –
8 | CCCCCCCCCC(C)O (stereo not drawn) [2-Undecanol] | – | – | > 50 µM | > 50 µM | > 50 µM | –
9 | CC(C)=CCCC(C)CCO (stereo not drawn) [(-)-β-Citronellol] | – | 43.5 ± 0.99 µM | > 50 µM | > 50 µM | – | –
10 | CCCCC/C=C\CCO [(Z)-3-Nonen-1-ol] | 26.4 ± 1.87 µM | 25.5 ± 1.67 µM | – | – | – | Kd [2, 5]: 21.5 ± 1.17 µM
11 | C=C/C(C)=C\CC=C(C)C [(Z)−ocimene] | 25.1 ± 0.93 µM | 22.2 ± 1.01 µM | – | – | – | Kd [2, 5]: 28.6 ± 1.71 µM
12 | O=Cc1ccccc1 [Benzaldehyde] | – | – | – | – | – | Kd [1, 7]: 28 ± 2.11 µM; Kd [2, 8]: 27.5 ± 1.96 µM; Kd [3, 9]: 24 ± 1.76 µM
13 | CCCCOC(C)=O [Butyl acetate] | – | – | – | – | – | Kd [1, 7]: 41.2 ± 2.89 µM; Kd [2, 8]: 26.6 ± 1.87 µM; Kd [3, 9]: 34.5 ± 2.79 µM
14 | C=CC(=O)OCCCC [Butyl acrylate] | – | – | – | – | – | Kd [1, 7]: 28.1 ± 2.37 µM; Kd [2, 8]: 38.5 ± 1.69 µM; Kd [3, 9]: 40.2 ± 2.88 µM
15 | CCCCOC(=O)CCC [Butyl butyrate] | – | – | > 50 µM | > 50 µM | > 50 µM | –
16 | CC(C)=CCC/C(C)=C/C=O [Citral] | – | – | – | – | – | Kd [1, 13]: > 50 µM; Kd [2, 14]: > 50 µM; Kd [3, 15]: > 50 µM
17 | CCCCCCCCCC=O [Decanal] | 45.9 ± 1.71 µM | 42.3 ± 2.76 µM | – | > 50 µM | – | –
18 | CCCCCCCCCCCC=O [Dodecanal] | – | – | > 50 µM | > 50 µM | > 50 µM | –

Row | Molecule | Kd [1, 4] | Kd [3, 6] | Kd [1, 10] | Kd [2, 11] | Kd [3, 12] | further results
19 | CCCCCCCCCCCC [Dodecane] | – | – | > 50 µM | > 50 µM | > 50 µM | –
20 | CCCCCCC(=O)OCC [Ethyl heptanoate] | 45.3 µM and 38.3 µM | 38.3 µM and 35.3 µM | – | – | – | Kd [2, 5]: 25.3 µM and 43.2 µM
21 | CCOC(=O)Cc1ccccc1 [Ethyl phenylacetate] | – | – | – | – | – | Kd [1, 7]: 25.3 ± 1.98 µM; Kd [2, 8]: 27.3 ± 2.02 µM; Kd [3, 9]: 24.4 ± 1.32 µM
22 | CCCCCCOC(=O)CCC [Hexyl butyrate] | – | – | > 50 µM | – | > 50 µM | Kd [2, 5]: 46.8 ± 1.85 µM
23 | CCCCCCOC(=O)CCCCC [Hexyl hexanoate] | – | 43.8 ± 1.98 µM | > 50 µM | – | – | Kd [2, 5]: 44.7 ± 2.38 µM
24 | c1ccc2[nH]ccc2c1 [Indole] | – | – | – | – | – | Kd [1, 7]: 22.4 ± 2.01 µM; Kd [2, 8]: 27.1 ± 1.91 µM; Kd [3, 9]: 24.6 ± 2.16 µM
25 | C=C(C)[C@H]1CC=C(C)CC1 [Limonene] | – | – | > 50 µM | > 50 µM | > 50 µM | –
26 | C=CC(C)(O)CCC=C(C)C (stereo not drawn) [Linalool] | – | – | – | – | – | Kd [1, 7]: 46.2 ± 2.35 µM; Kd [2, 14]: > 50 µM; Kd [3, 15]: > 50 µM
27 | COC(=O)Cc1ccccc1 [Methyl phenylacetate] | – | – | – | – | – | Kd [1, 7]: 30.6 ± 1.92 µM; Kd [2, 8]: 32.1 ± 1.85 µM; Kd [3, 9]: 22.2 ± 0.87 µM
28 | CCCCCCCCC=O [Nonanal] | – | – | > 50 µM | – | > 50 µM | Kd [2, 5]: 43.6 ± 1.11 µM
29 | CCCCCCCCC [Nonane] | – | – | > 50 µM | > 50 µM | > 50 µM | –
30 | CCCCCCCCCOC(C)=O [Nonyl acetate] | 29.2 ± 2.19 µM | 46.5 ± 3.07 µM | – | – | – | Kd [2, 5]: 23.6 ± 1.6 µM
31 | CCCCC [Pentane] | 39.5 ± 2.54 µM | 35.6 ± 2.61 µM | – | – | – | Kd [2, 5]: 42.2 ± 1.95 µM
32 | CCCCCCCCCCCCCC [Tetradecane] | – | 46.2 ± 2.76 µM | > 50 µM | > 50 µM | – | –
33 | CCCCCCCCCCCCCCO [Tetradecanol] | 35.8 ± 3.01 µM | – | – | > 50 µM | > 50 µM | –
34 | CC1=CC=C(C(C)C)CC1 [α-Terpinene] | – | – | – | – | – | Kd [1, 13]: > 50 µM; Kd [2, 14]: > 50 µM; Kd [3, 9]: 45.5 ± 2.06 µM
35 | (+)-α-Pinene | 30.6 ± 0.71 µM | 27.2 ± 1.02 µM | – | – | – | Kd [2, 5]: 31.7 ± 0.98 µM

— paper PMC3416781, “Functional Characterizations of Chemosensory Proteins of the Alfalfa Plant Bug Adelphocoris lineolatus Indicate Their Involvement in Host Recognition” (PLoS ONE, 2012)
